pIC50, pKi: −log10 of the molar value. Values joined by “and” are separate entries in the source; they are usually repeats but may differ in a detail not shown here. Identical values can stand only once.
Experiments:
[1] = Cytotoxicity on MRC-5 fibroblasts (resazurin); type: cell-based, human; conditions: human
How it was run: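 MRC-5SV2 cells (3 × 10^4 cells mL^−1) in MEM with 5% foetal calf serum exposed to compounds for 3 days at 37 °C, 5% CO2. Viability read by resazurin fluorescence (10 µg mL^−1 final, 4 h; λex 550/λem 590 nm) against untreated and medium controls; EC50 derived.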

P2 transporter (TbAT1) = P2 transporter (TbAT1) (Trypanosoma brucei brucei, UniProt Q9Y0I0); experiment: cell-based; conditions: for pKi: P2 transporter Ki
P2 transporter (TbAT1), sequence (Q9Y0I0 entry or part of it): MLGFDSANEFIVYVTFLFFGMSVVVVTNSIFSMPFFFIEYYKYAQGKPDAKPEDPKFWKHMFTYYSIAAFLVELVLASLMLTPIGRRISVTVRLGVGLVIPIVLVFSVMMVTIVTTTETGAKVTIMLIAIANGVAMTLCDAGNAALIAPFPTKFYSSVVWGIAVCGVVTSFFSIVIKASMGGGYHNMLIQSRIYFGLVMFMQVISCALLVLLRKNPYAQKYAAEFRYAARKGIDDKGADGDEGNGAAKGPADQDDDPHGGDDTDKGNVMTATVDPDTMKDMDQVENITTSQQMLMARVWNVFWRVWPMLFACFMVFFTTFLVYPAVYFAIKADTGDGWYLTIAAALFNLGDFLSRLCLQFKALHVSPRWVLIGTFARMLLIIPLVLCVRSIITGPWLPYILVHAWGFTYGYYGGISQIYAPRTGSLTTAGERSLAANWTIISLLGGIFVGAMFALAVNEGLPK
Experimental: Non-specific association of radiolabel with the cell pellet was determined using an identical incubation in the presence of saturating (1 mM) unlabelled adenosine.

[2] = system: T. brucei BSF s427 wildtype cells; experiment: Growth assays of T. brucei (trypanocidal/trypanostatic effect); type: cell-based, Trypanosoma brucei
Experimental: Growth assays of T. brucei
To test the effect of the novel adenosine analogues on the growth of T. brucei BSF, s427 wildtype cells were seeded at 1×10^5 cells mL-1 in 5 mL of HMI-9 medium with 10% FBS and treated with compounds […]
cells were also incubated in drug-free medium under the same conditions. 2 μM of 2’-deoxycoformycin were added to all cultures to avoid any potential effect of serum adenosine deaminase on the activity of test compounds and cordycepin.1
Cells were manually counted in Neubauer chambers at 0, 2, 4, 6, 8, 12, 24, 36 and 48 h after addition of […]
the drugs. […]
After 6 and 12 h after addition of drugs, approximately 2×10^6 cells were harvested from each group and applied to glass slides pre-treated with poly-L-lysine, left to settle for 5 min and fixed with 4% formaldehyde for 4 min. The formaldehyde was neutralised by addition of 100 mM glycine (20 min).
Cells were washed once with PBS and blocked for 1 h with 1% BSA/0.2% Tween-20 in PBS. Cells were […]

## Nc1ncnc2c1c(Br)cn2[C@@H]1O[C@H](CO)[C@@H](O)[C@H]1O [Compound 8, 7-bromotubercidin]
[1]; MRC-5 EC50, Average
  EC50 at 3 day: 12.8 µM
[1]; MRC-5 EC50, single measurements
  EC50 at 3 day: 8.18 µM
P2 transporter (TbAT1); Gibbs free energy from −RT ln(Ki)
  P2 transporter ΔG^0: -7.77 kcal/mol
P2 transporter (TbAT1); P2 transporter IC50, single experiments, [L] 0.033 or 0.1 per experiment
  pIC50: 5.60 and 5.41 and 5.36
P2 transporter (TbAT1); AVG, source data
  pKi: 5.52
P2 transporter (TbAT1); single experiments, Cheng–Prusoff from IC50
  pKi: 5.68 and 5.49 and 5.43
P2 transporter (TbAT1); in comparison to adenosine
  P2 transporter δ(ΔG^0): 0.789 kcal/mol
[2]; 2xEC50, 2 h, experiment 1
  AVG of cells/mL: 142500 cells/mL
  Cells/mL: 127500 Cells/mL and 157500 Cells/mL
  Counts: 51 and 63
[2]; 2xEC50, 2 h, experiment 2
  AVG of cells/mL: 155000 cells/mL
  Cells/mL: 145000 Cells/mL and 165000 Cells/mL
  Counts: 58 and 66
[2]; 2xEC50, 4 h, experiment 1
  AVG of cells/mL: 146250 cells/mL
  Cells/mL: 140000 Cells/mL and 152500 Cells/mL
  Counts: 61 and 56
[2]; 2xEC50, 4 h, experiment 2
  AVG of cells/mL: 162500 cells/mL
  Cells/mL: 140000 Cells/mL and 185000 Cells/mL
  Counts: 74 and 56
[2]; 2xEC50, 6 h, experiment 1
  AVG of cells/mL: 147500 cells/mL
  Cells/mL: 132500 Cells/mL and 162500 Cells/mL
  Counts: 53 and 65
[2]; 2xEC50, 6 h, experiment 2
  AVG of cells/mL: 175000 cells/mL
  Cells/mL: 175000 Cells/mL
  Counts: 70
[2]; 2xEC50, 8 h, experiment 1
  AVG of cells/mL: 175000 cells/mL
  Cells/mL: 185000 Cells/mL and 165000 Cells/mL
  Counts: 74 and 66
[2]; 2xEC50, 8 h, experiment 2
  AVG of cells/mL: 166250 cells/mL
  Cells/mL: 180000 Cells/mL and 152500 Cells/mL
  Counts: 72 and 61
[2]; 2xEC50, 12 h, experiment 1
  AVG of cells/mL: 185000 cells/mL
  Cells/mL: 185000 Cells/mL
  Counts: 74
[2]; 2xEC50, 12 h, experiment 2
  AVG of cells/mL: 181250 cells/mL
  Cells/mL: 190000 Cells/mL and 172500 Cells/mL
  Counts: 76 and 69
[2]; 2xEC50, 24 h, experiment 1
  AVG of cells/mL: 211250 cells/mL
  Cells/mL: 227500 Cells/mL and 195000 Cells/mL
  Counts: 91 and 78
[2]; 2xEC50, 24 h, experiment 2
  AVG of cells/mL: 167500 cells/mL
  Cells/mL: 165000 Cells/mL and 170000 Cells/mL
  Counts: 66 and 68
[2]; 2xEC50, 36 h, experiment 1
  AVG of cells/mL: 350000 cells/mL
  Cells/mL: 322500 Cells/mL and 377500 Cells/mL
  Counts: 129 and 151
[2]; 2xEC50, 36 h, experiment 2
  AVG of cells/mL: 212500 cells/mL
  Cells/mL: 220000 Cells/mL and 205000 Cells/mL
  Counts: 88 and 82
[2]; 2xEC50, 48 h, experiment 1
  AVG of cells/mL: 365000 cells/mL
  Cells/mL: 365000 Cells/mL
  Counts: 146
[2]; 2xEC50, 48 h, experiment 2
  AVG of cells/mL: 152500 cells/mL
  Cells/mL: 142500 Cells/mL and 162500 Cells/mL
  Counts: 57 and 65
[2]; 2× and 5× EC50
  effect on T. brucei bloodstream forms in culture (cidal/static): trypanostatic
[2]; 5xEC50, 2 h, experiment 1
  AVG of cells/mL: 118750 cells/mL
  Cells/mL: 130000 Cells/mL and 107500 Cells/mL
  Counts: 52 and 43
[2]; 5xEC50, 2 h, experiment 2
  AVG of cells/mL: 130000 cells/mL
  Cells/mL: 137500 Cells/mL and 122500 Cells/mL
  Counts: 55 and 49
[2]; 5xEC50, 4 h, experiment 1
  AVG of cells/mL: 138750 cells/mL
  Cells/mL: 132500 Cells/mL and 145000 Cells/mL
  Counts: 58 and 53
[2]; 5xEC50, 4 h, experiment 2
  AVG of cells/mL: 130000 cells/mL
  Cells/mL: 125000 Cells/mL and 135000 Cells/mL
  Counts: 54 and 50
[2]; 5xEC50, 6 h, experiment 1
  AVG of cells/mL: 186250 cells/mL
  Cells/mL: 195000 Cells/mL and 177500 Cells/mL
  Counts: 78 and 71
[2]; 5xEC50, 6 h, experiment 2
  AVG of cells/mL: 162500 cells/mL
  Cells/mL: 155000 Cells/mL and 170000 Cells/mL
  Counts: 62 and 68
[2]; 5xEC50, 8 h, experiment 1
  AVG of cells/mL: 160000 cells/mL
  Cells/mL: 162500 Cells/mL and 157500 Cells/mL
  Counts: 65 and 63
[2]; 5xEC50, 8 h, experiment 2
  AVG of cells/mL: 125000 cells/mL
  Cells/mL: 122500 Cells/mL and 127500 Cells/mL
  Counts: 49 and 51
[2]; 5xEC50, 12 h, experiment 1
  AVG of cells/mL: 176250 cells/mL
  Cells/mL: 190000 Cells/mL and 162500 Cells/mL
  Counts: 76 and 65
[2]; 5xEC50, 12 h, experiment 2
  AVG of cells/mL: 166250 cells/mL
  Cells/mL: 175000 Cells/mL and 157500 Cells/mL
  Counts: 70 and 63
[2]; 5xEC50, 24 h, experiment 1
  AVG of cells/mL: 146250 cells/mL
  Cells/mL: 135000 Cells/mL and 157500 Cells/mL
  Counts: 54 and 63
[2]; 5xEC50, 24 h, experiment 2
  AVG of cells/mL: 126250 cells/mL
  Cells/mL: 115000 Cells/mL and 137500 Cells/mL
  Counts: 46 and 55
[2]; 5xEC50, 36 h, experiment 1
  AVG of cells/mL: 146250 cells/mL
  Cells/mL: 147500 Cells/mL and 145000 Cells/mL
  Counts: 59 and 58
[2]; 5xEC50, 36 h, experiment 2
  AVG of cells/mL: 138750 cells/mL
  Cells/mL: 145000 Cells/mL and 132500 Cells/mL
  Counts: 58 and 53
[2]; 5xEC50, 48 h, experiment 1
  AVG of cells/mL: 112500 cells/mL
  Cells/mL: 112500 Cells/mL
  Counts: 45
[2]; 5xEC50, 48 h, experiment 2
  AVG of cells/mL: 75000 cells/mL
  Cells/mL: 65000 Cells/mL and 85000 Cells/mL
  Counts: 26 and 34
